Read-outs that look alike come from different tables or passages of the source. Ends that are not written are not given here.
Columns and labels:
bovine fibrinogen = biological target: T1, bovine fibrinogen (Bos taurus, UniProt P02672+P02676+P12799); assay: Isothermal titration calorimetry (ITC) binding to fibrinogen; conditions: ITC in HBS; peptides 5.7-5.9 mM titrated into 0.175 mM fibrinogen; PEG-pep1 1.7 mM or PEG-pep2 5.2 mM into 0.012 mM fibrinogen; n = 3 independent samples
T1 sequence (P12799 25-444): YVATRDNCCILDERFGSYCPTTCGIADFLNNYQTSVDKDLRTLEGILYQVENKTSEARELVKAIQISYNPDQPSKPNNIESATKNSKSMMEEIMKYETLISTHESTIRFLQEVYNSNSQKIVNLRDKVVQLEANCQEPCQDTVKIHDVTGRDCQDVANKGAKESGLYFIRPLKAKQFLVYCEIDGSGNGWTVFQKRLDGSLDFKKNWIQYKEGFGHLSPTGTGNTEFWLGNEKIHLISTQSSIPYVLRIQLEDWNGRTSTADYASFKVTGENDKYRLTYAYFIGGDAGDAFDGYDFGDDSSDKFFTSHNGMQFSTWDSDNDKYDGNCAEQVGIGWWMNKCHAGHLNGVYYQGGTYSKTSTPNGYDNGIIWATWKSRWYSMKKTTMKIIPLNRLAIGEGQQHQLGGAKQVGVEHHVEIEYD
T1 sequence (P02676 1-468): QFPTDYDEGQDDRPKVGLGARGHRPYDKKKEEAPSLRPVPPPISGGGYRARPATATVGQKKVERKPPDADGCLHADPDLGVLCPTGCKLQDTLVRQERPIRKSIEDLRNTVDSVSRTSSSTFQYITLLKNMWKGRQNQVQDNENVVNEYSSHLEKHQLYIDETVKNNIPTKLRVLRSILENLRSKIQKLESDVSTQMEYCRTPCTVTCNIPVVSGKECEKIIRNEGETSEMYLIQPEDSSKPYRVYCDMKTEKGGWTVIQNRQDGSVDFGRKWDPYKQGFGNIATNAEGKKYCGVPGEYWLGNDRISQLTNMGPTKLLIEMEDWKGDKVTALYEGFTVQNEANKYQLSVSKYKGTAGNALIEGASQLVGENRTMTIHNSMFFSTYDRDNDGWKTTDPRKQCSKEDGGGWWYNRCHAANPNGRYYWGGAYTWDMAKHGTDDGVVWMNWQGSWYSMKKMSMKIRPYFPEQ
T1 sequence (P02672 20-615 partner): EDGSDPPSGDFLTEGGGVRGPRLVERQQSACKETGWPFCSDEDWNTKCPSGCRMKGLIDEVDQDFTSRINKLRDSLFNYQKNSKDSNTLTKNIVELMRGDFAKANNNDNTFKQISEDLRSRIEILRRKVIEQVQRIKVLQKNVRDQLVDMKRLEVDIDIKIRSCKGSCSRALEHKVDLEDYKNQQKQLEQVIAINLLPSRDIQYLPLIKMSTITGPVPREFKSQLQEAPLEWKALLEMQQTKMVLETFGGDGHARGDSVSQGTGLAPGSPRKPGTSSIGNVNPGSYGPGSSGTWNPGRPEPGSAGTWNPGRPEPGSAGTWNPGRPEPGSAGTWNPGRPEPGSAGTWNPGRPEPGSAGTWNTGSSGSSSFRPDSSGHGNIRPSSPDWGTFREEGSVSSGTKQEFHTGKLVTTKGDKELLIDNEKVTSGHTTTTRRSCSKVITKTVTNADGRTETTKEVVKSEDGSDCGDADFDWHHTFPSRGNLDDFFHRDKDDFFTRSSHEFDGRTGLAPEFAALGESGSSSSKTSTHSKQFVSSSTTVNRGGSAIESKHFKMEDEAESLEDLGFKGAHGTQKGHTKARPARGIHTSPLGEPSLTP
Protocol: (§1) Two techniques were used to confirm that PEG-peptides retained the ability to bind to fibrinogen (Fig. 1 and Table I, right): Fluorescence Anisotropy (FA) and Isothermal Titration Calorimetry (ITC). In FA measurements [Fig. 1(a)], the dissociation constant (Kd) was determined via saturation experiments for the non-conjugated peptides, and via competition experiments for the PEG-peptides. In the first case, saturation was achieved by adding increasing amounts of fibrinogen to a given amount of fluorescein-labelled peptides. In competition experiments, fibrinogen was pre-complexed with fluorescein-labelled peptides; these low molecular weight fluorophores were displaced upon addition of non-labelled conjugates, with a corresponding decrease in the polarization of the emitted light (smaller tumbling time).
The sample cell for this study can contain up to 270 μl of liquid. Fibrinogen/peptide samples were prepared adding 2 μl aliquots of peptide solution (5.91, 5.92, and 5.73 mM for Pep1, Pep2, and Pep3, respectively) under continuous stirring to 200 μl of 0.175 mM of bovine fibrinogen solution. Fibrinogen/PEG-peptide complexes were prepared adding 2 μl of 1.7 mM of PEG-pep1 or 5.2 mM of PEG-pep2 to 200 μl of 0.012 mM of bovine fibrinogen solution. Note that fibrinogen was prepared as follow: 60 mg of fibrinogen were dissolved in 1 mL HBS for 2 h at 37 °C and then dialyzed (Float-A-Lyzer G2 MWCO: 0.5–1 kDa, Spectrum, Inc.) against HBS for 24 h.

fibrinogen [1] = biological target: T2, fibrinogen (Bos taurus, UniProt P02672+P02676+P12799); assay: Fluorescence anisotropy (FA) competition experiments (displacement of 5IAF-peptides from fibrinogen); format: binding; conditions: 36 μM fibrinogen pre-complexed with 5IAF-pep1 (0.25 μM) or 5IAF-pep2 (0.8 μM), displaced by PEG-peptide, 1 h 37 °C, HBS; n = 3
T2 sequence (P12799 25-444): T1 sequence (P12799 25-444)
T2 sequence (P02676 1-468): T1 sequence (P02676 1-468)
T2 sequence (P02672 20-615 partner): T1 sequence (P02672 20-615 partner)
Protocol: as §1
Fibrinogen/5IAF-pep1 or 5IAF-pep2 complexes were prepared as described in the saturation experiments using 50 μl initial volumes and keeping the fibrinogen concentration fixed. Solutions were pre-incubated for 1 h at room temperature before 50 μl of PEG-peptide 1 or 2 solutions in HBS was added into the wells to obtain a final volume of 150 μl per well. Final concentrations were 36 μM fibrinogen; 0.25 μM 5IAF-pep1 and 0.6 μM to 1.2 mM PEG-pep1; 0.8 μM 5IAF-pep2; and 0.2 μM to 5 mM PEG-pep2. Polarization values were measured after 1 h of incubation at 37 °C. […]

[2] = tested on: adult Human Dermal Fibroblasts (HDFa); assay: Fibrin-in-fibrin HDFa migration assay (radial invasion); format: cell-based; conditions: 220 KIU of aprotinin in the media
Protocol: This migration assay is based on a fibrin-in-fibrin assay: when a volume of HDFa-laden fibrinogen solution is injected into a gelling fibrinogen-based formulation, cells migrate from the clot into the surrounding matrix; the maximum distance covered in the unit time [Fig. 8(a) top and insert in the bottom graph] is a measure of the cell migration capacity. This model is particularly advantageous to assess the migration of cells separately from other phenomena; for example, if seeded homogeneously and/or moving as a coherent front, cells can rapidly remodel and contract the matrix,[41] and this can profoundly influence the characteristics of their migration too.[42]
Standard cell culture methods are reported in the supplementary material, Sec. 1.4SI. For the migration assays, adult Human Dermal Fibroblasts (HDFa) were gently suspended in 12.5 mg/ml fibrinogen (in HBS) at a final cell density of 3 × 10^7 cells/ml. […] The cell migration rate was measured by analyzing acquired images with ImageJ (v1.49p, http://rsb.info.nih.gov/ij): the migration area was approximated to a circle and the cell invasion was thus quantified as the variation of the initial diameter, as previously reported by Lutolf et al.[28] An average of nine time points per diameter were measured from day 0 to 8, returning the average migration rate (μm/day). […]

fibrinogen [3] = biological target: T2, fibrinogen; assay: Fluorescence anisotropy (FA) saturation experiments with fluorescein-labelled peptides; format: binding; conditions: 5IAF-labelled peptide 25-30 μM, fibrinogen 50 nM-103 μM, HBS, 1 h room temperature; Hill model; n = 3
Protocol: as §1
Equal volumes (100 μl) of a labelled peptide solution (5IAF-pep1, 5IAF-pep2, or 5IAF-pep3) in HEPES (4-(2-hydroxyethyl)-1-piperazineethanesulfonic acid)-buffered saline (HBS) and of a fibrinogen solution were mixed together by gentle pipetting into a 96-well plate to obtain final concentrations of fibrinogen ranging from 50 nM to 103 μM, and a constant peptide concentration, i.e., 26 μM for 5IAF-pep1, 25 μM for 5IAF-pep2, or 30 μM for 5IAF-pep3. […] All mixed reagents were incubated for 1 h at room temperature before recording fluorescence polarization values.

fibrin clotting = conditions: cited from earlier work

| Substance | Kd (bovine fibrinogen) | Kd (fibrinogen [3]) | also measured |
| --- | --- | --- | --- |
| PEG-pep1: 2 kDa PEG vinyl sulfone conjugated to Pep1; rest of material PEG-ME (GPRPGCG; Cys6 thiol joined by thioether (Michael addition) to 2 kDa PEG vinyl sulfone; free N-terminus (A-knob mimic); about 20 mol% of the material is PEG-mercaptoethanol; The GC) | 103 ± 5 µM |  | Kd (fibrinogen [1]): 135 ± 8 µM |
| aprotinin |  |  | HDFa migration rate in presence vs absence of the inhibitor [2]: virtually identical migration rates |
| GHRPGCG [Pep2] | 351 ± 10 µM | 335 ± 6 µM |  |
| GPRP [glycine-proline-arginine-proline] |  |  | effect on fibrin clotting (fibrin clotting; 1:20 fibrinogen/peptide molar ratio): significantly reduce fibrin clotting; effect on fibrin clotting (fibrin clotting; above 1:100 fibrinogen/peptide molar ratio): completely prevent |
| GPRPGCG [Pep1] | 44 ± 9 µM | 40 ± 1 µM |  |
